Laboratory results reported in patent publication US20260335238A1, “SPRAY-DRIED COMPOSITIONS COMPRISING CGRP RECEPTOR ANTAGONISTS” (OREXO AB, priority 2023, published 2026).

Assay: Chemical stability of spray-dried zavegepant powder on storage, assay and % RS by HPLC/UV
Type: physicochemical
Details: zavegepant formulated as spray-dried powder, stored up to 6 months at 25/60 and 40/75
Description: The assay and purity, determined by HPLC/UV analysis, was 103.4% with a % RS of 1.46%.
Amounts of around 100 mg of the spray-dried powder from Example 2 above was dispensed into plastic DUMA containers placed in heat-sealed aluminium pouches together with a 4 Å molecular sieve desiccant. Two containers were placed inside a climate cabinet at 40 °C and 75% relative humidity (40/75) and two containers were placed inside a climate cabinet at 25 °C and 60% relative humidity (25/60).
The chemical stability of the drug substance after 6 months, with assay and total amounts of impurities and degradation products expressed as % RS, is summarized for the different climates in Table 3 below, in which NA means ‘not analysed’.

chemical stability (observed changes in % RS): surprisingly good
Compound: Cc1cc(C[C@@H](NC(=O)N2CCC(c3cc4ccccc4[nH]c3=O)CC2)C(=O)N2CCN(C3CCN(C)CC3)CC2)cc2cn[nH]c12 [zavegepant]
